In the CheMixHub viscosity set:
± gives the uncertainty stated by the source.

Experiment: xn = mol fraction of the nth substance listed

c1ccccc1 + CC(C)O
viscosity [mPa·s], 101 kPa
Settings	x1 = 0.0575	x1 = 0.144	x1 = 0.225	x1 = 0.362	x1 = 0.558	x1 = 0.651	x1 = 0.732	x1 = 0.798	x1 = 0.886
298.15 K	1.733 ± 0.019	1.369 ± 0.015	1.139 ± 0.012	0.89 ± 0.01	0.69 ± 0.007	0.639 ± 0.007	0.614 ± 0.006	0.607 ± 0.006	0.602 ± 0.006
303.15 K	1.512 ± 0.016	1.206 ± 0.013	1.015 ± 0.011	0.8 ± 0.008	0.643 ± 0.007	0.593 ± 0.006	0.572 ± 0.006	0.565 ± 0.006	0.561 ± 0.006
308.15 K	1.325 ± 0.014	1.068 ± 0.011	0.905 ± 0.01	0.73 ± 0.008	0.592 ± 0.006	0.551 ± 0.006	0.531 ± 0.006	0.527 ± 0.006	0.524 ± 0.006
313.15 K	1.16 ± 0.012	0.948 ± 0.01	0.814 ± 0.009	0.668 ± 0.007	0.556 ± 0.006	0.511 ± 0.005	0.497 ± 0.005	0.493 ± 0.005	0.493 ± 0.005
318.15 K	1.026 ± 0.011	0.852 ± 0.009	0.732 ± 0.008	0.616 ± 0.006	0.518 ± 0.006	0.475 ± 0.005	0.465 ± 0.005	0.463 ± 0.005	0.461 ± 0.005

O=[N+]([O-])c1ccccc1 + CCC(C)=O
303.15 K, 101 kPa
Settings	viscosity [mPa·s]
x2 = 0.1487	1.32 ± 0.0041
x2 = 0.3244	1.039 ± 0.0041
x2 = 0.4126	0.925 ± 0.004
x2 = 0.4992	0.82 ± 0.004
x2 = 0.7145	0.607 ± 0.004
x2 = 0.78	0.55 ± 0.004

CC(C)CCl + CCC(C)O
viscosity [mPa·s], 101.33 kPa
Settings	x1 = 0.1077	x1 = 0.2064	x1 = 0.3079	x1 = 0.4066	x1 = 0.5036	x1 = 0.648	x1 = 0.7018	x1 = 0.805	x1 = 0.8972
298.15 K	1.946 ± 0.018	1.381 ± 0.013	1.046 ± 0.011	0.8335 ± 0.0091	0.7002 ± 0.008	0.5685 ± 0.0069	0.5343 ± 0.0066	0.4815 ± 0.0062	0.4478 ± 0.006
313.15 K	1.254 ± 0.012	0.9644 ± 0.0097	0.7565 ± 0.0081	0.6299 ± 0.0071	0.5461 ± 0.0064	0.4591 ± 0.0058	0.4357 ± 0.0056	0.4015 ± 0.0054	0.3778 ± 0.0052

ClC(Cl)=C(Cl)Cl + CCC(C)O
viscosity [mPa·s]
Settings	x1 = 0.1024	x1 = 0.213	x1 = 0.3172	x1 = 0.4016	x1 = 0.5142	x1 = 0.6125	x1 = 0.7018	x1 = 0.7817	x1 = 0.8032	x1 = 0.9108
298.15 K, 101.3 kPa	–	–	–	–	–	–	–	1.005 ± 0.01	–	–
303.15 K, 101.33 kPa	1.918 ± 0.012	1.508 ± 0.01	1.263 ± 0.008	1.127 ± 0.008	1.005 ± 0.007	0.93 ± 0.006	0.884 ± 0.006	–	0.852 ± 0.006	0.822 ± 0.006

O=[N+]([O-])c1ccccc1 + CCC(C)O
viscosity [mPa·s], 100 kPa
Settings	x1 = 0.081	x1 = 0.16	x1 = 0.24	x1 = 0.35	x1 = 0.4949	x1 = 0.56	x1 = 0.65	x1 = 0.74	x1 = 0.8205	x1 = 0.9399
293.15 K	3.138 ± 0.057	2.694 ± 0.051	2.349 ± 0.046	2.041 ± 0.042	1.854 ± 0.04	1.838 ± 0.039	1.859 ± 0.04	1.915 ± 0.04	1.975 ± 0.041	2.078 ± 0.043
298.15 K	2.591 ± 0.049	2.246 ± 0.045	1.983 ± 0.041	1.74 ± 0.038	1.619 ± 0.036	1.612 ± 0.036	1.647 ± 0.037	1.719 ± 0.038	1.78 ± 0.039	1.861 ± 0.04
303.15 K	2.232 ± 0.045	1.989 ± 0.041	1.801 ± 0.039	1.632 ± 0.037	1.528 ± 0.035	1.521 ± 0.035	1.539 ± 0.035	1.58 ± 0.036	1.638 ± 0.037	1.708 ± 0.038
308.15 K	1.905 ± 0.04	1.731 ± 0.038	1.598 ± 0.036	1.476 ± 0.035	1.408 ± 0.034	1.405 ± 0.034	1.422 ± 0.034	1.459 ± 0.034	1.498 ± 0.035	1.577 ± 0.036
313.15 K	1.627 ± 0.037	1.489 ± 0.035	1.384 ± 0.033	1.289 ± 0.032	1.248 ± 0.032	1.252 ± 0.032	1.275 ± 0.032	1.32 ± 0.032	1.379 ± 0.033	1.457 ± 0.034
318.15 K	1.411 ± 0.034	1.309 ± 0.032	1.233 ± 0.031	1.169 ± 0.03	1.147 ± 0.03	1.155 ± 0.03	1.18 ± 0.031	1.224 ± 0.031	1.274 ± 0.032	1.351 ± 0.033
323.15 K	1.233 ± 0.031	1.159 ± 0.03	1.104 ± 0.03	1.058 ± 0.029	1.044 ± 0.029	1.055 ± 0.029	1.081 ± 0.029	1.122 ± 0.03	1.168 ± 0.03	1.253 ± 0.032
